# Laboratory results taken from patent US10487121B2, “D-peptide inhibitors of HIV entry and methods of use” (priority 2016, dated 2019).
# Like-named read-outs stand apart in the source and are kept apart here.
# Tests used:
# [1] = Rodent pharmacokinetics of PIE12-trimer and conjugates (Table 3 protocol); format: in vivo, Sprague Dawley rats; conditions: rats, 1.0 mg/kg, plasma, median; for half-life: read-out: T1/2 (converted)
# Method: At each timepoint, plasma was obtained using lithium heparin.
# Samples were spiked with an internal standard then precipitated with two volumes of 98% acetonitrile/2% Formic acid. Supernatants were analyzed by LC/MS/MS using an Agilent HPLC system (Waters X-Bridge BEH C18 column) paired to an AB Sciex API 3000 triple-quad mass spectrometer using MRM methods. Lipid conjugates required lower source temperatures (300° C. vs 500° C.) for improved reproducibility.
# [2] = molecular target: HXB2 (X4) luciferase reporter pseudovirions on HOS-CD4-CXCR4; conditions: values marked * from Francis, et al. Bioconjugates, read-out: Antiviral potency HXB2 (IC50); cited from earlier work
# [3] = molecular target: JRFL (R5) luciferase reporter pseudovirions on HOS-CD4-CCR5; conditions: values marked * from Francis, et al. Bioconjugates, read-out: Antiviral potency JRFL (IC50); cited from earlier work
compound,measurement,setting,value
CC(=O)N[C@H](Cc1c[nH]cn1)C(=O)N1CCC[C@@H]1C(=O)N[C@@H]1CSSC[C@H](C(=O)N[C@H](CCC(=O)O)C(=O)N[C@H](CC(C)C)C(=O)NCC(=O)N[C@H](CCCCNC(=O)CCOCCOCCOCCOCCNC(=O)CCOCC(N)(COCCC(=O)NCCOCCOCCOCCOCCC(=O)NCCCC[C@@H](NC(=O)CNC(=O)[C@@H](CC(C)C)NC(=O)[C@@H](CCC(=O)O)NC(=O)[C@H]2CSSC[C@@H](NC(=O)[C@H]3CCCN3C(=O)[C@@H](Cc3c[nH]cn3)NC(C)=O)C(=O)N[C@H](CC(=O)O)C(=O)N[C@H](Cc3ccc(O)cc3)C(=O)N3CCC[C@@H]3C(=O)N[C@H](CCC(=O)O)C(=O)N[C@H](Cc3c[nH]c4ccccc34)C(=O)N[C@H](CCC(N)=O)C(=O)N[C@H](Cc3c[nH]c4ccccc34)C(=O)N[C@H](CC(C)C)C(=O)N2)C(N)=O)COCCC(=O)NCCOCCOCCOCCOCCC(=O)NCCCC[C@@H](NC(=O)CNC(=O)[C@@H](CC(C)C)NC(=O)[C@@H](CCC(=O)O)NC(=O)[C@H]2CSSC[C@@H](NC(=O)[C@H]3CCCN3C(=O)[C@@H](Cc3c[nH]cn3)NC(C)=O)C(=O)N[C@H](CC(=O)O)C(=O)N[C@H](Cc3ccc(O)cc3)C(=O)N3CCC[C@@H]3C(=O)N[C@H](CCC(=O)O)C(=O)N[C@H](Cc3c[nH]c4ccccc34)C(=O)N[C@H](CCC(N)=O)C(=O)N[C@H](Cc3c[nH]c4ccccc34)C(=O)N[C@H](CC(C)C)C(=O)N2)C(N)=O)C(N)=O)NC(=O)[C@@H](CC(C)C)NC(=O)[C@@H](Cc2c[nH]c3ccccc23)NC(=O)[C@@H](CCC(N)=O)NC(=O)[C@@H](Cc2c[nH]c3ccccc23)NC(=O)[C@@H](CCC(=O)O)NC(=O)[C@H]2CCCN2C(=O)[C@@H](Cc2ccc(O)cc2)NC(=O)[C@@H](CC(=O)O)NC1=O [PIE12-trimer],AUC(0-inf),"[1]; rat, in vivo, IV",0.168 µM·h
same,C0,"[1]; rat, in vivo, IV",275 nM
same,clearance,"[1]; rat, in vivo, IV, read-out: Cl (obs) (converted)",13.9 mL/min/kg
same,half-life,"[1]; rat, in vivo, IV",33 min
same,Vd,"[1]; rat, in vivo, IV, read-out: Vz (obs)",0.7 L/kg
same,AUC(0-inf),"[1]; rat, in vivo, SC",0.208 µM·h
same,Cmax,"[1]; rat, in vivo, SC",80 nM
same,Tmax,"[1]; rat, in vivo, SC",30 min
same,half-life,"[1]; rat, in vivo, SC",48.6 min
same,F,[1]; SC,96%
same,IC50,[2],0.72 ± 0.04 nM
same,IC50,[3],2.1 ± 0.28 nM
